Data reported in ChEMBL document CHEMBL4507258 (2021).

Assays:
[1] = molecular target: Tyrosine-protein kinase ABL1 (Homo sapiens) (UniProt P00519); details: Compound concentration 1000.0 nM
[2] = molecular target: Activin receptor type-1B (Homo sapiens) (UniProt P36896); details: Compound concentration 1000.0 nM
[3] = molecular target: 5'-AMP-activated protein kinase catalytic subunit alpha-1 (Homo sapiens) (UniProt Q13131); details: Compound concentration 1000.0 nM
[4] = molecular target: Ankyrin repeat and protein kinase domain-containing protein 1 (Homo sapiens) (UniProt Q8NFD2); details: Compound concentration 1000.0 nM
[5] = test system: Serine/threonine-protein kinase B-raf (Homo sapiens), P15056 [V600E]; details: Compound concentration 1000.0 nM
Chain of Serine/threonine-protein kinase B-raf (Homo sapiens), P15056 [V600E] (P15056 whole entry V600E): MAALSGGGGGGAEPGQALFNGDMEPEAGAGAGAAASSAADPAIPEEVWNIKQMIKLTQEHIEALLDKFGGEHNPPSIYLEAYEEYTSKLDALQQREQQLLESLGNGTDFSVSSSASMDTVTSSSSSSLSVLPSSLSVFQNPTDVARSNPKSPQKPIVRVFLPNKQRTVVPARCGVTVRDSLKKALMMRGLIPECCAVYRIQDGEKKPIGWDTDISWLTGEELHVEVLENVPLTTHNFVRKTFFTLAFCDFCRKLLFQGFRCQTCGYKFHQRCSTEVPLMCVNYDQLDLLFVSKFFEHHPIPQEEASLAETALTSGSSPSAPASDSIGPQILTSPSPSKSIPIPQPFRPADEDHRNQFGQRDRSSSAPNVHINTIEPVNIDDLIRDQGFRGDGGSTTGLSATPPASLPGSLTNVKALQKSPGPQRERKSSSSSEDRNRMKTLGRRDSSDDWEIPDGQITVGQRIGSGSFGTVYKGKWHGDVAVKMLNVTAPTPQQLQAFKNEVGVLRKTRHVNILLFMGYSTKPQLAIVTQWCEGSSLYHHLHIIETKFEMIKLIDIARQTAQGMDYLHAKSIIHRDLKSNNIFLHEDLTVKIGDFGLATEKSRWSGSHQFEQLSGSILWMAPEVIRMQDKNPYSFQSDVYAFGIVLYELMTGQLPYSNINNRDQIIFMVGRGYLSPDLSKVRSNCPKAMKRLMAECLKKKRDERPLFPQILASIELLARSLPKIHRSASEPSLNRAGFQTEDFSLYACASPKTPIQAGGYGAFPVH

[6] = molecular target: Protein-tyrosine kinase 6 (Homo sapiens) (UniProt Q13882); details: Compound concentration 1000.0 nM
[7] = molecular target: Cyclin-dependent kinase 5 (Homo sapiens) (UniProt Q00535); details: Compound concentration 1000.0 nM
Chain of Cyclin-dependent kinase 5 (Homo sapiens) (Q00535 whole entry, looked up): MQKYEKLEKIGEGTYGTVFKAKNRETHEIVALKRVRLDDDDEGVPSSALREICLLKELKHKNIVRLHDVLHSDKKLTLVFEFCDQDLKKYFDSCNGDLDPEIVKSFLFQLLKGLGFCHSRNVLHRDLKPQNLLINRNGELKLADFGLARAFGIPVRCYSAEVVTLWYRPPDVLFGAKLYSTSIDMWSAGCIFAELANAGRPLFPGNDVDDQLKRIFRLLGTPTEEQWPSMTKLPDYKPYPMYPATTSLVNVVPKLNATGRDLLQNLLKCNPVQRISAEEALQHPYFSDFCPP

[8] = molecular target: Dual specificity protein kinase CLK1 (Homo sapiens) (UniProt P49759); details: Compound concentration 1000.0 nM
[9] = molecular target: Casein kinase I isoform epsilon (Homo sapiens) (UniProt P49674); details: Compound concentration 1000.0 nM
[10] = molecular target: Casein kinase II subunit alpha (Homo sapiens) (UniProt P68400); details: Compound concentration 1000.0 nM
[11] = molecular target: Ephrin type-A receptor 8 (Homo sapiens) (UniProt P29322); details: Compound concentration 1000.0 nM
[12] = molecular target: Mitogen-activated protein kinase 3 (Homo sapiens) (UniProt P27361); details: Compound concentration 1000.0 nM
[13] = molecular target: Fibroblast growth factor receptor 2 (Homo sapiens) (UniProt P21802); details: Compound concentration 1000.0 nM
[14] = test system: Receptor-type tyrosine-protein kinase FLT3 (Homo sapiens), P36888 [R834Q]; details: Compound concentration 1000.0 nM
[15] = molecular target: Rhodopsin kinase GRK1 (Homo sapiens) (UniProt Q15835); details: Compound concentration 1000.0 nM
[16] = molecular target: Inhibitor of nuclear factor kappa-B kinase subunit alpha (Homo sapiens) (UniProt O15111); details: Compound concentration 1000.0 nM
[17] = molecular target: Tyrosine-protein kinase JAK1 (Homo sapiens) (UniProt P23458); details: Compound concentration 1000.0 nM
[18] = molecular target: Serine/threonine-protein kinase LATS2 (Homo sapiens) (UniProt Q9NRM7); details: Compound concentration 1000.0 nM
[19] = molecular target: Mitogen-activated protein kinase kinase kinase 15 (Homo sapiens) (UniProt Q6ZN16); details: Compound concentration 1000.0 nM
[20] = molecular target: Microtubule-associated serine/threonine-protein kinase 1 (Homo sapiens) (UniProt Q9Y2H9); details: Compound concentration 1000.0 nM
[21] = test system: Hepatocyte growth factor receptor (Homo sapiens), P08581 [M1250T]; details: Compound concentration 1000.0 nM
[22] = test system: Hepatocyte growth factor receptor (Homo sapiens), P08581 [Y1235D]; details: Compound concentration 1000.0 nM
[23] = molecular target: Serine/threonine-protein kinase Nek4 (Homo sapiens) (UniProt P51957); details: Compound concentration 1000.0 nM
[24] = molecular target: Mitogen-activated protein kinase 14 (Homo sapiens) (UniProt Q16539); details: Compound concentration 1000.0 nM
[25] = molecular target: Mitogen-activated protein kinase 12 (Homo sapiens) (UniProt P53778); details: Compound concentration 1000.0 nM
[26] = molecular target: Platelet-derived growth factor receptor beta (Homo sapiens) (UniProt P09619); details: Compound concentration 1000.0 nM
[27] = molecular target: Phosphatidylinositol 3-kinase C2 domain-containing subunit gamma (Homo sapiens) (UniProt O75747); details: Compound concentration 1000.0 nM
[28] = test system: Phosphatidylinositol 4,5-bisphosphate 3-kinase catalytic subunit alpha isoform (Homo sapiens), P42336 [E545A]; details: Compound concentration 1000.0 nM
Chain of Phosphatidylinositol 4,5-bisphosphate 3-kinase catalytic subunit alpha isoform (Homo sapiens), P42336 [E545A] (P42336 whole entry E545A, canonical isoform): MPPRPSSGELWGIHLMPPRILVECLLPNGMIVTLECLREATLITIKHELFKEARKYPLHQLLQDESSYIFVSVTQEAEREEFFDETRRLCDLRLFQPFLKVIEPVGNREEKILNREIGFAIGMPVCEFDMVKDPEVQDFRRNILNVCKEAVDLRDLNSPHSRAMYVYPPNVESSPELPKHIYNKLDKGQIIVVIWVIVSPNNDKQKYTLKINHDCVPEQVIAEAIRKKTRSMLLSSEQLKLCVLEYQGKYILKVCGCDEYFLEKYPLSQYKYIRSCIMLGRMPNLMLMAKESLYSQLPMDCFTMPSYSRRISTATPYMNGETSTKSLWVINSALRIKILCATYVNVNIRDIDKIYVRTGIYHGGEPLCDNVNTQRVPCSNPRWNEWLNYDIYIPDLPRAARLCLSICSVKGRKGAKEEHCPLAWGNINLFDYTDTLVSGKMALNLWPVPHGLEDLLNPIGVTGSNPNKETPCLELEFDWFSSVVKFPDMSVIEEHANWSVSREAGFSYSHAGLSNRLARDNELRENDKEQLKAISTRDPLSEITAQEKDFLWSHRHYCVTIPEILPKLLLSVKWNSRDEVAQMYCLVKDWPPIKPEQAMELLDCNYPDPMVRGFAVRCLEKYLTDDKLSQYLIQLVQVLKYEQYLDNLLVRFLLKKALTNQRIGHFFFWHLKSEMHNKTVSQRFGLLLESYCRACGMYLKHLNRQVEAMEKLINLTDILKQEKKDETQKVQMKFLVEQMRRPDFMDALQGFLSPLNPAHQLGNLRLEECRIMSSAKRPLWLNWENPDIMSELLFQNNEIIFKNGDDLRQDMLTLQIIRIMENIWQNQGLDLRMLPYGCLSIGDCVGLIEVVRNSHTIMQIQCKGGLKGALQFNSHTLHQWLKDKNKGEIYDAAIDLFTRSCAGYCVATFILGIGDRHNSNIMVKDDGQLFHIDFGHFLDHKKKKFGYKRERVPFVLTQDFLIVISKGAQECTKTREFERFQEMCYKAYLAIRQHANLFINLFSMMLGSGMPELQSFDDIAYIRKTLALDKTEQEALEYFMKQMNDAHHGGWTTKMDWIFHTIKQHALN

[29] = test system: Phosphatidylinositol 4,5-bisphosphate 3-kinase catalytic subunit alpha isoform (Homo sapiens), P42336 [I800L]; details: Compound concentration 1000.0 nM
Chain of Phosphatidylinositol 4,5-bisphosphate 3-kinase catalytic subunit alpha isoform (Homo sapiens), P42336 [I800L] (P42336 whole entry I800L, canonical isoform): as the sequence (P42336 whole entry E545A, canonical isoform) above, with A545E, I800L counted along it

[30] = molecular target: Protein kinase C iota type (Homo sapiens) (UniProt P41743); details: Compound concentration 1000.0 nM
[31] = molecular target: Serine/threonine-protein kinase D1 (Homo sapiens) (UniProt Q15139); details: Compound concentration 1000.0 nM
[32] = molecular target: Receptor-interacting serine/threonine-protein kinase 1 (Homo sapiens) (UniProt Q13546); details: Compound concentration 1000.0 nM
[33] = molecular target: Dual serine/threonine and tyrosine protein kinase (Homo sapiens) (UniProt Q6XUX3); details: Compound concentration 1000.0 nM
[34] = molecular target: Rho-associated protein kinase 1 (Homo sapiens) (UniProt Q13464); details: Compound concentration 1000.0 nM
[35] = molecular target: Serine/threonine-protein kinase WNK3 (Homo sapiens) (UniProt Q9BYP7); details: Compound concentration 1000.0 nM
Chain of Serine/threonine-protein kinase WNK3 (Homo sapiens) (Q9BYP7 whole entry): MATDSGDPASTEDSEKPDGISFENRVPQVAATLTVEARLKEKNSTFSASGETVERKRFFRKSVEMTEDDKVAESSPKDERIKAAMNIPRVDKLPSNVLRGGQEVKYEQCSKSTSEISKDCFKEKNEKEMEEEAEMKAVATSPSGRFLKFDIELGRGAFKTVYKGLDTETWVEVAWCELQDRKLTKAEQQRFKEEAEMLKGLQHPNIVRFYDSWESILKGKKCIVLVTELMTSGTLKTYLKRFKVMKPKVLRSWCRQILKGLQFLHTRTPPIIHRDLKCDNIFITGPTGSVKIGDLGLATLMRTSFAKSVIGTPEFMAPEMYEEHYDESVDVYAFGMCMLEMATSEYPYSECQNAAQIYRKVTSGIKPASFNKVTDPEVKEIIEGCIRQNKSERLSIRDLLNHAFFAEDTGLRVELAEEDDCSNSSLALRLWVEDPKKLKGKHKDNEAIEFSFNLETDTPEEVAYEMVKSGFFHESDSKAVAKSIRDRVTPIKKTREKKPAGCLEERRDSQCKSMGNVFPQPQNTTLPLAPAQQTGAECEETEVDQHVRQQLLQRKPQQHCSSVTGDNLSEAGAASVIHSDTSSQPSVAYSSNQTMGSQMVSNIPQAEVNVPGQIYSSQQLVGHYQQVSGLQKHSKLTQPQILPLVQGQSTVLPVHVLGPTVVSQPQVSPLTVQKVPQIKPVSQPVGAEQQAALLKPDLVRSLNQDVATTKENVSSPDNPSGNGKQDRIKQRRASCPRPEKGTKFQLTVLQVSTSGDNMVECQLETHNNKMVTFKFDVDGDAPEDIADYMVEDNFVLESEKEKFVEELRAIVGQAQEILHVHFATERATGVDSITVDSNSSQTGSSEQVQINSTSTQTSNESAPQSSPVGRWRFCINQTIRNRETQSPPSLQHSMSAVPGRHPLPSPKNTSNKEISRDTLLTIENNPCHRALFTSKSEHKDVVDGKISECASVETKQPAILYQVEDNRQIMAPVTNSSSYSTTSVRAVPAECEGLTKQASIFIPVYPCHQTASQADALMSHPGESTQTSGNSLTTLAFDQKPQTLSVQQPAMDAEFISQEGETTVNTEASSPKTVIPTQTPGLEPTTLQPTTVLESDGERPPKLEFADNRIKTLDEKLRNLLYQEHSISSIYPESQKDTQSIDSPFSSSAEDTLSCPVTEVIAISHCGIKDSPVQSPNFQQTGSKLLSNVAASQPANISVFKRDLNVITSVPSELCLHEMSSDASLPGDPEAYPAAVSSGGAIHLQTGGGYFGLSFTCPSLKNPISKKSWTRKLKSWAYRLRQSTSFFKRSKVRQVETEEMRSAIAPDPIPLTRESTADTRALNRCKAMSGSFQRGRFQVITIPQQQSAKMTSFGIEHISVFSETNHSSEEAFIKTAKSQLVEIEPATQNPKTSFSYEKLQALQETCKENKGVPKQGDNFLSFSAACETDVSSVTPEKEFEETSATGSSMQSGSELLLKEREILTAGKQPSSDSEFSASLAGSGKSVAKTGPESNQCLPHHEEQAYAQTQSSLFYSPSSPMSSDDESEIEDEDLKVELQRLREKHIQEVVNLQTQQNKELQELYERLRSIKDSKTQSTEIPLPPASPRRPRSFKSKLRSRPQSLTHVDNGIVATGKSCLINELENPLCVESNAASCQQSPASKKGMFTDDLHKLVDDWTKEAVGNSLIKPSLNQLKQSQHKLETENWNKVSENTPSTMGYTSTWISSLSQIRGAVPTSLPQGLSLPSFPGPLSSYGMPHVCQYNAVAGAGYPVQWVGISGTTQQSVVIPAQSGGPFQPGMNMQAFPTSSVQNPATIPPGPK

[36] = molecular target: Serine/threonine-protein kinase 32A (Homo sapiens) (UniProt Q8WU08); details: Compound concentration 1000.0 nM
Chain of Serine/threonine-protein kinase 32A (Homo sapiens) (Q8WU08 whole entry): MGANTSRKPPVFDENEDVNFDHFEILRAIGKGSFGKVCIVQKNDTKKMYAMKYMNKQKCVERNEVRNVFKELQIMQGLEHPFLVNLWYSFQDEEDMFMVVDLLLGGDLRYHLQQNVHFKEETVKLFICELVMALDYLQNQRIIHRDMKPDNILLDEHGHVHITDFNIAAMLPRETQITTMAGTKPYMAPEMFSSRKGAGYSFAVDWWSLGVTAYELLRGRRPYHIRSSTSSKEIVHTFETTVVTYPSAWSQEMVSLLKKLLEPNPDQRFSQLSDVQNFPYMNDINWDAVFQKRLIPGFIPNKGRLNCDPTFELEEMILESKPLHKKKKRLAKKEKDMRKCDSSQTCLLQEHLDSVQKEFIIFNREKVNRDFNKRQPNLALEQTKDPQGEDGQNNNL

[37] = molecular target: Serine/threonine-protein kinase 32B (Homo sapiens) (UniProt Q9NY57); details: Compound concentration 1000.0 nM
[38] = molecular target: Tyrosine-protein kinase Yes (Homo sapiens) (UniProt P07947); details: Compound concentration 1000.0 nM
[39] = molecular target: T1, D(4) dopamine receptor (Homo sapiens) (UniProt P21917); details: Compound concentration 10.0 uM
T1 sequence (whole entry): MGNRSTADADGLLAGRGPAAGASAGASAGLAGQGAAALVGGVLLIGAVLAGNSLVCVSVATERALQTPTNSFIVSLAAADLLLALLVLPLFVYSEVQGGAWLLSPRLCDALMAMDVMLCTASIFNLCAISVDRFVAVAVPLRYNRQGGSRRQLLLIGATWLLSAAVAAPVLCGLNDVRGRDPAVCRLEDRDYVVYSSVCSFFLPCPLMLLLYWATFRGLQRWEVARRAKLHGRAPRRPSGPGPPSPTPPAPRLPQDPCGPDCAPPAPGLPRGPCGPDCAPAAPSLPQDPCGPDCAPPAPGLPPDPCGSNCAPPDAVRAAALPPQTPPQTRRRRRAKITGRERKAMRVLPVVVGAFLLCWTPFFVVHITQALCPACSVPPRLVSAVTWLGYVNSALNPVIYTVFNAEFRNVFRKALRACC

Chain of Activin receptor type-1B (Homo sapiens) (P36896 whole entry): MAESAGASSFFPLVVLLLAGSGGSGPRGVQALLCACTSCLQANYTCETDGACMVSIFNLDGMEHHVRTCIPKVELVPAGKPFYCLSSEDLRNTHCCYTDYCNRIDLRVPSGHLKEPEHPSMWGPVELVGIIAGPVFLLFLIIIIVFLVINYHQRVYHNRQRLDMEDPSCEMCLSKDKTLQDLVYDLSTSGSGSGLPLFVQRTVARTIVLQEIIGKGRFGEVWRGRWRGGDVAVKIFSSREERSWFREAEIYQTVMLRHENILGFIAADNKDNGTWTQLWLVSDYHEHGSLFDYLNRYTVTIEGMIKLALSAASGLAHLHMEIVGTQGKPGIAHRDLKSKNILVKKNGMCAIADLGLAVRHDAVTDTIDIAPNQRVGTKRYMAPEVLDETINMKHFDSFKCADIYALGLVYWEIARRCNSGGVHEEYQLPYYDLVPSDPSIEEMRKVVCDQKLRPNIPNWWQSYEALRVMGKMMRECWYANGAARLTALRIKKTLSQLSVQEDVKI

Row | SMILES | residual activity [1] | residual activity [2] | residual activity [3] | residual activity [4] | residual activity [5] | residual activity [6] | residual activity [7] | residual activity [8] | residual activity [9] | residual activity [10] | residual activity [11] | residual activity [12] | residual activity [13] | residual activity [14] | residual activity [15] | residual activity [16] | residual activity [17] | residual activity [18] | residual activity [19] | residual activity [20] | other results
1 | CCCCN(CCCC)C(=O)CN1C[C@H](c2cc(OC)c3c(c2)OCO3)[C@@H](C(=O)O)[C@@H]1CC(C)(C)CCC [ABT-546] | 79.8% | 96.4% | 100% | 55.1% | 89.1% | 100% | 100% | 96.1% | 100% | 68.5% | 100% | 100% | 100% | 64.2% | 71.9% | 56.2% | 84.7% | 100% | 100% | 100% | residual activity [21]: 100%; residual activity [22]: 100%; residual activity [23]: 85%; residual activity [24]: 100%; residual activity [25]: 100%; residual activity [26]: 100%; residual activity [27]: 100%; residual activity [28]: 89.8%; residual activity [29]: 52.9%; residual activity [30]: 100%; residual activity [31]: 79.4%; residual activity [32]: 100%; residual activity [33]: 68.6%; residual activity [34]: 90.4%; residual activity [35]: 100%; residual activity [36]: 100%; residual activity [37]: 81.7%; residual activity [38]: 100%; inhibition [39]: 21.7%
2 | CCCCN(CCCC)C(=O)CN1C[C@@H](c2cc(OC)c3c(c2)OCO3)[C@H](C(=O)O)[C@H]1CC(C)(C)CCC [A-545] | 100% | 96.4% | 96.7% | 95.7% | 100% | 100% | 97.7% | 100% | 100% | 88.6% | 99.9% | 100% | 83.2% | 80.6% | 100% | 100% | 100% | 100% | 99% | 100% | residual activity [21]: 100%; residual activity [22]: 100%; residual activity [23]: 93.9%; residual activity [24]: 81.3%; residual activity [25]: 100%; residual activity [26]: 99%; residual activity [27]: 80.3%; residual activity [28]: 77.9%; residual activity [29]: 100%; residual activity [30]: 100%; residual activity [31]: 100%; residual activity [32]: 100%; residual activity [33]: 99.7%; residual activity [34]: 100%; residual activity [35]: 65.5%; residual activity [36]: 100%; residual activity [37]: 98.4%; residual activity [38]: 95.3%; inhibition [39]: 87.1%
